Data: patent US5066674A, “Carbamate inhibitors of cholesterol esterase and their use as hypolipidemic and hypocaloric agents” (University of Iowa Research Foundation, priority 1990, dated 1991)

Molecular target: Pancreatic cholesterol esterase (CEase)
Assay: CEase-catalyzed hydrolysis of p-nitrophenylbutyrate (PNPB), irreversible inhibition timecourse
Type: biochemical
Details: for Second-order inhibition rate constant ki/Ki: PNPB substrate, 25.0 °C, pH 7.3, 0.1M sodium phosphate, 0.1N NaCl, 1 mM Triton X100; for t1/2, half-life of irreversible inhibition: in presence of 10^-5 M inhibitor, calculated t1/2 = ln(2)/(ki[I])
Description: The CEase-catalyzed hydrolysis of the water-soluble substrate p-nitrophenylbutyrate (PNPB) is the reaction that was routinely used to characterize irreversible inhibitors. The reaction is followed at 25.0±0.1° C. and pH 7.3 in 0.1M sodium phosphate buffer that contains 0.1N NaCl, 1 mM Triton X100, and the appropriate concentrations of CEase and PNPB. Characterization of inhibitors occurs in three steps: First, inhibitor is added to CEase and the percent activity of the enzyme is measured as a function of time. A corresponding control (contains no inhibitor) measures the 100% activity level. Secondly, the pseudo-first order inhibition rate constant is calculated from the activity versus time data.
%A=(%AO -%Ainf)e^-kt +%Ainf (1)
The pseudofirst order inhibition rate constant is plotted versus [I]. If the plot is linear, the second-order inhibition rate constant, ki /Ki, is the slope of a linear-leastsquares fit of the plot. And, thirdly, if plot is nonlinear and hyperbolic, the following inhibition mechanism is indicated: [drawing 5] In this mechanism, the inhibitor first forms a reversible, noncovalent complex, EI, with the enzyme. An enzymic nucleophile, presumably the active site serine (cf. Scheme I) then attacks the carbonyl carbon of the carbamate functionality of the inhibitor, with subsequent expulsion of the aromatic leaving group. For the above mechanism, the dependence of k on [I] is described by the following equation: [formula] […] From this fit the maximum first-order inhibition rate constant (ki) and the dissociation constant of EI (Ki) were determined, and consequently ki /Ki could be calculated.

| SMILES | Second-order inhibition rate constant ki/Ki [M⁻¹ s⁻¹] | Irreversible inhibition of CEase (statement in words) (comparison of second-order inhibition rate constants of Table I) | t1/2, half-life of irreversible inhibition [min] |
| --- | --- | --- | --- |
| CCCCCCCCNC(=O)Oc1ccc2ccccc2c1 [2-Naphthyl n-Octyl Carbamate] | 1350 | most potent irreversible carbamate inhibitor of CEase | 0.86 |
| CCCCNC(=O)Oc1ccc(NC(C)=O)cc1 [p-Acetamidophenyl n-Butyl Carbamate] | 40 | – | 29 |
| CCCCCCNC(=O)Oc1ccc(NC(C)=O)cc1 [p-Acetamidophenyl n-Hexyl Carbamate] | 493 | – | 2.3 |
| CCCCCCCCNC(=O)Oc1ccc(NC(C)=O)cc1 [p-Acetamidophenyl n-Octyl Carbamate] | 100 | – | 11.6 |
| CCCCCNC(=O)Oc1ccc(NC(C)=O)cc1 [p-Acetamidophenyl n-Pentyl Carbamate] | 100 | – | 11.6 |
